Structures are written as SMILES.

This assay is described as follows: Effective concentration that reduces HIV-induced cytopathic effect by 50% was determined by reverse transcriptase (RT) assay. (In general: Cytopathic effects are the visible damage that an infection or toxin causes in cultured cells.)
For the compound `Cc1cn([C@H]2C=C[C@@H](CO)O2)c(=O)[nH]c1=O` [2',3'-didehydro-3'-deoxythymidine], a half-maximal effect (EC50) was put at 50 nM.

`CCCCCCCCCCCCCCCC(=O)OCC1C=CC(n2cc(C)c(=O)[nH]c2=O)O1` (stereo not given) [Hexadecanoic acid 5-(5-methyl-2,4-dioxo-3,4-dihydro-2H-pyrimidin-1-yl)-2,5-dihydro-furan-2-ylmethyl ester]: the midpoint of the response, the EC50, lay at 80 nM.

Take `Cc1cn(C2C=CC(COP(=O)(O)OCC3C=CC(n4cc(C)c(=O)[nH]c4=O)O3)O2)c(=O)[nH]c1=O` (stereo not given) [Phosphoric acid bis-[5-(5-methyl-2,4-dioxo-3,4-dihydro-2H-pyrimidin-1-yl)-2,5-dihydro-furan-2-ylmethyl] ester]: the EC50 (usually the midpoint of the concentration-response curve) came to 50 nM. This EC50 is about 1.6-fold lower than that of the compound before.

With `CCCCCCCCCCCCCCCCOP(=O)(O)OCC1C=CC(n2cc(C)c(=O)[nH]c2=O)O1` (stereo not given) [Phosphoric acid hexadecyl ester 5-(5-methyl-2,4-dioxo-3,4-dihydro-2H-pyrimidin-1-yl)-2,5-dihydro-furan-2-ylmethyl ester], the EC50 worked out at 200 nM.

`Cc1cn([C@H]2C[C@H](N=[N+]=[N-])[C@@H](CO)O2)c(=O)[nH]c1=O` [1-((2R,4S,5S)-4-Azido-5-hydroxymethyl-tetrahydro-furan-2-yl)-5-methyl-1H-pyrimidine-2,4-dione] had a concentration giving a half-maximal response (EC50) of 10 nM.

For the origin of these results see BindingDB's records for doi:10.1021/jm00059a006 (Ura Cnrs 1309, 1993).
